Data reported in patent US10954214B2 (Janssen Pharmaceutica NV, priority 2016, dated 2021).

Tests used:
[1] = test system: IL10 secretion by TMD8 ABC-DLBCL cells; test: Human IL10 Mesoscale assay (TMD-8); type: cell-based; details: Homo sapiens, TMD8; TMD-8 cells, 24 h
In short: (§1)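 TMD8 or OCI-LY3 cells (100,000/well) were exposed to compounds in 9 twofold dilutions from 15 μM to 58.6 nM (0.3% DMSO) for 24 h at 37 °C. Supernatant IL6 and IL10 were quantified by MSD electrochemiluminescence immunoassay. DMSO defined maximum signal and BTK inhibitor RN486 (30 nM–131 pM) defined maximum inhibition.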

[2] = molecular target: full-length MALT1 protein (Strep-MALT1(1-824)-His) (Homo sapiens (Human), UniProt Q9UDY8); test: MALT1 Biochemical Protease Assay (Ac-LRSR-AMC substrate); details: 10 nM FL MALT1, 200 μM Ac-LRSR-AMC, 4 h at RT; read-out: MALT1_Biochemical activity (Ac-LRSR-amc) IC50
In short: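 Fluorescence from AMC release off the quenched LRSR substrate was read after a 4 h reaction at RT. Values were normalised to no-enzyme and uninhibited controls and fitted for IC50 and Hill coefficient.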

TMD8 cells = test: 4-day proliferation assay, TMD8; type: cell-based; details: Homo sapiens, 96 h, 4 days incubation, CellTiterGLO, read-out: Anti-proliferation: TMD-8 IC50
In short: (§2)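 Each line was plated at 10,000 cells per well for linear growth, with no beta-mercaptoethanol during the assay. OCI-Ly3 cells were below passage 10.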

[3] = test system: IL6 secretion by TMD8 ABC-DLBCL cells; test: Human IL6 Mesoscale assay (TMD-8); type: cell-based; details: Homo sapiens, TMD8; TMD-8 cells, 24 h
In short: as §1

OCI-Ly3 cells = test: 4-day proliferation assay, OCI-Ly3; type: cell-based, human; details: Homo sapiens, 96 h, 4 days incubation, CellTiterGLO, read-out: Anti-proliferation: OCI-LY-3 IC50
In short: as §2

full-length MALT1 protein (Strep-MALT1(1-824)-His), sequence (Q9UDY8 whole entry): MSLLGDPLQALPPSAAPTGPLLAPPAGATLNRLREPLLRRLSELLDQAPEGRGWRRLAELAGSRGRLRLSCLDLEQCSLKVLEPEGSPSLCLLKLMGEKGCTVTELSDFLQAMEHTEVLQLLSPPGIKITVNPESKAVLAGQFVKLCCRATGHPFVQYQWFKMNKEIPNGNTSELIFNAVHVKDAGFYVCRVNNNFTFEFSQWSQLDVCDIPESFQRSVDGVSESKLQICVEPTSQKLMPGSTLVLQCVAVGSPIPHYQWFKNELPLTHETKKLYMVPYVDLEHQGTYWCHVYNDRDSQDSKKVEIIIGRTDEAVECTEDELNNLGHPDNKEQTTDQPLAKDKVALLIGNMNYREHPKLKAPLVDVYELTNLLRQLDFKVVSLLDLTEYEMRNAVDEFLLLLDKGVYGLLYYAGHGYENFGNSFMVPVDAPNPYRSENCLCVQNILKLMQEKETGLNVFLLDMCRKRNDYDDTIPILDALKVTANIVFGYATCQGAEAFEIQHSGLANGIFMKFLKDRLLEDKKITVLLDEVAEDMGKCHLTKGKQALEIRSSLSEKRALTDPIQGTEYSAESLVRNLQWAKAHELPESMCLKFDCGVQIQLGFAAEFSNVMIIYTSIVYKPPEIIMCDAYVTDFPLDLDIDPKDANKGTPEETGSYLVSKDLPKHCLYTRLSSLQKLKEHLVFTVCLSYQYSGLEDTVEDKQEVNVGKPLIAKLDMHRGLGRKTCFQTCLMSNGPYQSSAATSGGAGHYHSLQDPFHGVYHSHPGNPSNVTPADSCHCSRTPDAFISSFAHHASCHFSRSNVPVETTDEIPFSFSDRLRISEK

| Structure (SMILES) | IC50 [1] [µM] | IC50 [2] [µM] | IC50 (TMD8 cells) [µM] | IC50 [3] [µM] | IC50 (OCI-Ly3 cells) [µM] |
| --- | --- | --- | --- | --- | --- |
| N#Cc1cc(NC(=O)c2cnn(-c3cncc4ccccc34)c2C(F)(F)F)cnc1OCCCCN [Cpd 84, N-(6-(4-aminobutoxy)-5-cyanopyridin-3-yl)-1-(isoquinolin-4-yl)-5-(trifluoromethyl)-1H-pyrazole-4-carboxamide] | 0.355 | 0.214 | > 20 | 0.148 | 1.7 |
| O=C(Nc1cnc(-c2nnco2)c(Cl)c1)c1cnn(-c2cncc3ccccc23)c1C(F)(F)F [Cpd 69, N-(5-Chloro-6-(1,3,4-oxadiazol-2-yl)pyridin-3-yl)-1-(isoquinolin-4-yl)-5-(trifluoromethyl)-1H-pyrazole-4-carboxamide] | 0.063 | 0.06 | ~16.2 | 0.058 | 0.43 |
| O=C(Nc1cnc(OC2CC2)c(Cl)c1)c1cnn(-c2cccc3ncccc23)c1C(F)(F)F [Cpd 79, N-(5-Chloro-6-cyclopropoxypyridin-3-yl)-1-(quinolin-5-yl)-5-(trifluoromethyl)-1H-pyrazole-4-carboxamide] | 0.251 | 0.098 | 8.32 | ~0.34 | ~2.34 |
| Nc1nccc(-c2ccc(NC(=O)c3cnn(-c4cncc5ccccc45)c3C(F)(F)F)cc2Cl)n1 [Cpd 58, N-(4-(2-Aminopyrimidin-4-yl)-3-chlorophenyl)-1-(isoquinolin-4-yl)-5-(trifluoromethyl)-1H-pyrazole-4-carboxamide] | 0.288 | 0.141 | 4.47 | 0.331 | 0.5 |
| N#Cc1cc(NC(=O)c2cnn(-c3cncc4ccccc34)c2C(F)(F)F)ccc1-n1nccn1 [Cpd 59, N-(3-Cyano-4-(2H-1,2,3-triazol-2-yl)phenyl)-1-(isoquinolin-4-yl)-5-(trifluoromethyl)-1H-pyrazole-4-carboxamide] | 0.074 | 0.031 | 6.76 | 0.068 | 0.14 |
| N#Cc1cncc(NC(=O)c2cnn(-c3cncc4ccccc34)c2C(F)(F)F)c1 [Cpd 82, N-(5-cyanopyridin-3-yl)-1-(isoquinolin-4-yl)-5-(trifluoromethyl)-1H-pyrazole-4-carboxamide] | 0.295 | 0.676 | 6.31 | 0.24 | ~1.58 |
| O=C(Nc1cnc(-n2nccn2)c(Cl)c1)c1cnn(-c2cnc(CO)c3ccccc23)c1C(F)(F)F [Cpd 385, N-(5-chloro-6-(2H-1,2,3-triazol-2-yl)pyridin-3-yl)-1-(1-(hydroxymethyl)isoquinolin-4-yl)-5-(trifluoromethyl)-1H-pyrazole-4-carboxamide] | 0.166 | 0.054 | 1.51 | 0.214 | 0.837 |
| CCOc1ncc(NC(=O)c2cnn(-c3cccc4ncccc34)c2C(F)(F)F)cc1C#N [Cpd 81, N-(5-cyano-6-ethoxypyridin-3-yl)-1-(quinolin-5-yl)-5-(trifluoromethyl)-1H-pyrazole-4-carboxamide] | 0.138 | 0.123 | 11.5 | 0.135 | ~1.35 |
| COC(=O)c1ccc(NC(=O)c2cnn(-c3cccc4ncccc34)c2C(F)(F)F)cc1C#N [Cpd 313, methyl 2-cyano-4-(1-(quinolin-5-yl)-5-(trifluoromethyl)-1H-pyrazole-4-carboxamido)benzoate] | 4.17 | 0.043 | 7.94 | 7.24 | 0.939 |
| O=C(Nc1cnc(-n2nccn2)c(Cl)c1)c1cnn(-c2cccc3nc(Cl)ccc23)c1C(F)(F)F [Cpd 221, N-(5-chloro-6-(2H-1,2,3-triazol-2-yl)pyridin-3-yl)-1-(2-chloroquinolin-5-yl)-5-(trifluoromethyl)-1H-pyrazole-4-carboxamide] | 0.331 | 2.04 | 2.57 | 0.331 | 0.912 |
| O=C(Nc1ccc(-n2cc(CO)cn2)c(Cl)c1)c1cnn(-c2cccc3ncccc23)c1C(F)(F)F [Cpd 175, N-(3-chloro-4-(4-(hydroxymethyl)-1H-pyrazol-1-yl)phenyl)-1-(quinolin-5-yl)-5-(trifluoromethyl)-1H-pyrazole-4-carboxamide] | 0.204 | 0.047 | 1.23 | > 3.02 | 1.08 |
| O=C(Nc1cnc(-n2nccn2)c(Cl)c1)c1cnn(-c2cccc3nnsc23)c1C(F)(F)F [Cpd 120, 1-(benzo[d][1,2,3]thiadiazol-7-yl)-N-(5-chloro-6-(2H-1,2,3-triazol-2-yl)pyridin-3-yl)-5-(trifluoromethyl)-1H-pyrazole-4-carboxamide] | 0.085 | 0.03 | 1.95 | 0.102 | 0.325 |
| N#Cc1cc(NC(=O)c2cnn(-c3cccc4ncccc34)c2C(F)(F)F)cnc1-n1cncn1 [Cpd 86, N-(5-cyano-6-(1H-1,2,4-triazol-1-yl)pyridin-3-yl)-1-(quinolin-5-yl)-5-(trifluoromethyl)-1H-pyrazole-4-carboxamide] | 0.148 | 0.071 | ~11.2 | 0.037 | 0.78 |
| [2H]c1ccc2c(-n3ncc(C(=O)Nc4cnc(-n5nccn5)c(C#N)c4)c3C(F)(F)F)cccc2n1 [Cpd 130, N-(5-cyano-6-(2H-1,2,3-triazol-2-yl)pyridin-3-yl)-1-(2-D-quinolin-5-yl)-5-(trifluoromethyl)-1H-pyrazole-4-carboxamide] | 0.166 | 0.017 | 3.47 | 0.214 | 0.417 |
| N#Cc1cc(NC(=O)c2cnn(-c3cncc4ncccc34)c2C(F)(F)F)cnc1-n1nccn1 [Cpd 145, N-(5-cyano-6-(2H-1,2,3-triazol-2-yl)pyridin-3-yl)-1-(1,7-naphthyridin-5-yl)-5-(trifluoromethyl)-1H-pyrazole-4-carboxamide] | 0.047 | 0.028 | 4.57 | 0.126 | 0.626 |
| COCc1cnn(-c2ncc(NC(=O)c3cnn(-c4cccc5ncccc45)c3C(F)(F)F)cc2Cl)n1 [Cpd 173, N-(5-chloro-6-(4-(methoxymethyl)-2H-1,2,3-triazol-2-yl)pyridin-3-yl)-1-(quinolin-5-yl)-5-(trifluoromethyl)-1H-pyrazole-4-carboxamide] | 0.24 | 0.059 | 2.69 | 0.55 | 1.73 |
| N#Cc1cc(NC(=O)c2cnn(-c3cncc4ccccc34)c2C(F)(F)F)ccc1-n1ccnn1 [Cpd 62, N-(3-cyano-4-(1H-1,2,3-triazol-1-yl)phenyl)-1-(isoquinolin-4-yl)-5-(trifluoromethyl)-1H-pyrazole-4-carboxamide] | 0.085 | 0.059 | 10 | 0.112 | 0.23 |
| NC(=O)c1ncc(-n2ncc(C(=O)Nc3cnc(-n4nccn4)c(Cl)c3)c2C(F)(F)F)c2ccsc12 [Cpd 391, 4-(4-((5-chloro-6-(2H-1,2,3-triazol-2-yl)pyridin-3-yl)carbamoyl)-5-(trifluoromethyl)-1H-pyrazol-1-yl)thieno[2,3-c]pyridine-7-carboxamide] | 0.031 | 0.007 | 0.676 | 0.045 | 0.505 |
| N#Cc1cc(NC(=O)c2cnn(-c3nccc4ccsc34)c2C(F)(F)F)cnc1-n1nccn1 [Cpd 143, N-(5-cyano-6-(2H-1,2,3-triazol-2-yl)pyridin-3-yl)-1-(thieno[2,3-c]pyridin-7-yl)-5-(trifluoromethyl)-1H-pyrazole-4-carboxamide] | 0.056 | 0.026 | 9.55 | 0.098 | 0.423 |
| Cn1nnc(-c2ncc(NC(=O)c3cnn(-c4cccc5ncccc45)c3C(F)(F)F)cc2C#N)n1 [Cpd 149, N-(5-cyano-6-(2-methyl-2H-tetrazol-5-yl)pyridin-3-yl)-1-(quinolin-5-yl)-5-(trifluoromethyl)-1H-pyrazole-4-carboxamide] | 2.63 | 0.029 | 4.37 | 0.912 | 0.759 |
| N#Cc1cc(NC(=O)c2cnn(-c3cccc4ncccc34)c2C(F)(F)F)cnc1-n1nccn1 [Cpd 83, N-(5-cyano-6-(2H-1,2,3-triazol-2-yl)pyridin-3-yl)-1-(quinolin-5-yl)-5-(trifluoromethyl)-1H-pyrazole-4-carboxamide] | 0.043 | 0.034 | ~8.32 | 0.032 | 0.51 |
| CN1CCN(C(=O)c2ncc(NC(=O)c3cnn(-c4cncc5ccccc45)c3C(F)(F)F)cc2C#N)CC1 [Cpd 96, N-(5-cyano-6-(4-methylpiperazine-1-carbonyl)pyridin-3-yl)-1-(isoquinolin-4-yl)-5-(trifluoromethyl)-1H-pyrazole-4-carboxamide] | 0.676 | 0.759 | ~15.5 | 1.05 | 7.08 |
